Reference: ChEMBL document CHEMBL4823271, “Synthesis and structure-activity relationship of new chalcone linked 5-phenyl-3-isoxazolecarboxylic acid methyl esters potentially active against drug resistant Mycobacterium tuberculosis” (Eur J Med Chem, 2021)
In brackets after ≈: the same amount, converted by molar mass.

Tests used:
Type in all cases: functional
[1] = test system: Mycobacterium tuberculosis; assay: Antimycobacterial activity against isoniazid-resistant Mycobacterium tuberculosis H37Rv ATCC 35822 assessed as inhibition of bacterial growth incubated for 48 hrs by broth microdilution assay
[2] = test system: Mycobacterium tuberculosis; assay: Antimycobacterial activity against ethambutol-resistant Mycobacterium tuberculosis H37Rv ATCC 35837 assessed as inhibition of bacterial growth incubated for 48 hrs by broth microdilution assay
[3] = test system: Mycobacterium tuberculosis; assay: Antimycobacterial activity against Streptomycin-resistant Mycobacterium tuberculosis H37Rv ATCC 35820 assessed as inhibition of bacterial growth incubated for 48 hrs by broth microdilution assay
[4] = test system: Mycobacterium tuberculosis; assay: Antimycobacterial activity against rifampicin-resistant Mycobacterium tuberculosis H37Rv ATCC 35838 assessed as inhibition of bacterial growth incubated for 48 hrs by broth microdilution assay

Row | Structure (SMILES) | MIC [1] [µg/mL] | MIC [2] [µg/mL] | MIC [3] [µg/mL] | MIC [4] [µg/mL]
1 | CO[C@H]1/C=C/O[C@@]2(C)Oc3c(C)c(O)c4c(O)c(c(/C=N/N5CCN(C)CC5)c(O)c4c3C2=O)NC(=O)/C(C)=C\C=C\[C@H](C)[C@H](O)[C@@H](C)[C@@H](O)[C@@H](C)[C@H](OC(C)=O)[C@@H]1C [RIFAMPIN] | 0.03 (≈ 0.0365 µM) | 0.03 (≈ 0.0365 µM) | 0.03 (≈ 0.0365 µM) | 64 (≈ 77.8 µM)
2 | CCCOc1ccc(C(=O)/C=C/c2ccc(C(=O)Nc3cccc(-c4cc(C(=O)OC)no4)c3)cc2)cc1 | 0.12 (≈ 0.235 µM) | 0.06 (≈ 0.118 µM) | 2 (≈ 3.92 µM) | 0.03 (≈ 0.0588 µM)
3 | CCOC(=O)c1cc(/C=C/c2c(Cl)cncc2Cl)on1 | 4 (≈ 12.8 µM) | 8 (≈ 25.5 µM) | 8 (≈ 25.5 µM) | 1 (≈ 3.19 µM)
4 | CN[C@@H]1[C@H](O[C@H]2[C@H](O[C@H]3[C@H](O)[C@@H](O)[C@H](N=C(N)N)[C@@H](O)[C@@H]3N=C(N)N)O[C@@H](C)[C@]2(O)C=O)O[C@@H](CO)[C@H](O)[C@H]1O [STREPTOMYCIN] | 1 (≈ 1.72 µM) | 2 (≈ 3.44 µM) | > 64 | 1 (≈ 1.72 µM)
5 | COC(=O)c1cc(-c2cccc(NC(=O)c3ccc(/C=C/C(=O)c4ccc(CC(C)C)cc4)cc3)c2)on1 | > 64 | > 64 | 1 (≈ 1.97 µM) | 16 (≈ 31.5 µM)
6 | COC(=O)c1cc(-c2cccc(NC(=O)c3ccc(/C=C/C(=O)c4cccc(Cl)c4)cc3)c2)on1 | 0.5 (≈ 1.03 µM) | 0.12 (≈ 0.246 µM) | 0.5 (≈ 1.03 µM) | 0.5 (≈ 1.03 µM)
7 | CCOc1ccc(C(=O)/C=C/c2ccc(C(=O)Nc3cccc(-c4cc(C(=O)OC)no4)c3)cc2)cc1 | 0.5 (≈ 1.01 µM) | 0.06 (≈ 0.121 µM) | 0.5 (≈ 1.01 µM) | 0.03 (≈ 0.0604 µM)
8 | COC(=O)c1cc(-c2cccc(NC(=O)c3ccc(/C=C/C(=O)c4ccccc4Cl)cc3)c2)on1 | 1 (≈ 2.05 µM) | 0.25 (≈ 0.513 µM) | 0.5 (≈ 1.03 µM) | 0.25 (≈ 0.513 µM)
9 | CCOC(=O)c1cc(-c2cccc(NC(=O)c3ccc(/C=C/C(=O)c4ccc(Cl)cc4)cc3)c2)on1 | 32 (≈ 63.9 µM) | 4 (≈ 7.99 µM) | 64 (≈ 128 µM) | 0.5 (≈ 0.998 µM)
10 | COC(=O)c1cc(-c2cccc(NC(=O)c3ccc(/C=C/C(=O)c4ccc(Cl)cc4)cc3)c2)on1 | > 64 | > 64 | 2 (≈ 4.11 µM) | 2 (≈ 4.11 µM)
11 | COC(=O)c1cc(-c2cccc(NC(=O)c3ccc(/C=C/C(=O)c4ccc(Cl)cc4Cl)cc3)c2)on1 | > 64 | > 64 | 1 (≈ 1.92 µM) | 64 (≈ 123 µM)
12 | COC(=O)c1cc(-c2cccc(NC(=O)c3ccc(/C=C/C(=O)c4ccc(OC)cc4OC)cc3)c2)on1 | 2 (≈ 3.9 µM) | 0.25 (≈ 0.488 µM) | 2 (≈ 3.9 µM) | 0.25 (≈ 0.488 µM)
13 | NNC(=O)c1ccncc1 [ISONIAZID] | > 64 | 0.03 (≈ 0.219 µM) | 0.03 (≈ 0.219 µM) | 0.03 (≈ 0.219 µM)
14 | CC[C@@H](CO)NCCN[C@@H](CC)CO [ETHAMBUTOL] | 4 (≈ 19.6 µM) | 32 (≈ 157 µM) | 1 (≈ 4.89 µM) | 1 (≈ 4.89 µM)
15 | COC(=O)c1cc(-c2cccc(NC(=O)c3ccc(/C=C/C(=O)c4ccc(F)cc4F)cc3)c2)on1 | 1 (≈ 2.05 µM) | 0.12 (≈ 0.246 µM) | 2 (≈ 4.09 µM) | 0.25 (≈ 0.512 µM)
16 | COC(=O)c1cc(-c2cccc(NC(=O)c3ccc(/C=C/C(=O)c4ccc(N5CCOCC5)cc4)cc3)c2)on1 | 0.12 (≈ 0.223 µM) | 0.12 (≈ 0.223 µM) | 2 (≈ 3.72 µM) | 0.12 (≈ 0.223 µM)
17 | COC(=O)c1cc(-c2cccc(NC(=O)c3ccc(/C=C/C(=O)c4ccc(C)cc4)cc3)c2)on1 | 0.5 (≈ 1.07 µM) | > 64 | 0.25 (≈ 0.536 µM) | > 64
18 | COC(=O)c1cc(-c2cccc(NC(=O)c3ccc(/C=C/C(=O)c4ccccc4C)cc3)c2)on1 | 1 (≈ 2.14 µM) | 0.12 (≈ 0.257 µM) | 2 (≈ 4.29 µM) | 0.25 (≈ 0.536 µM)
19 | COC(=O)c1cc(-c2ccc(NC(=O)c3ccc(/C=C/C(=O)c4ccc(Cl)cc4)cc3)cc2)on1 | 0.5 (≈ 1.03 µM) | 0.25 (≈ 0.513 µM) | 8 (≈ 16.4 µM) | 0.5 (≈ 1.03 µM)
